Measured values: US9890175B2, “Taxane compound, and preparation method and use thereof” (JIANGSU TASLY DIYI PHARMACEUTICAL CO., LTD., priority 2013, dated 2018)
Read-outs that look alike come from different tables or passages of the source.

How the values were obtained:
[1] = tested on: MCF-7 breast cancer cells; assay: MTT proliferation inhibition, MCF-7; type: cell-based; settings: Homo sapiens, MCF7, read-out: Proliferation inhibition rate, MCF-7 Breast cancer
Source text: (§1) 1. Cytotoxicity Assay Using Human Tumor Cell Lines
(§2) Paclitaxel was used as the positive drug.

Hela cervical cancer = assay: MTT proliferation inhibition, HeLa; type: cell-based; settings: Homo sapiens, read-out: Proliferation inhibition rate, HeLa Uterin cancer
Source text: as §1, §2

A375 melanoma = assay: MTT proliferation inhibition, A375; type: cell-based; settings: Homo sapiens, A-375, read-out: Proliferation inhibition rate, A375 Melanoma
Source text: as §1, §2

[2] = Caco-2 cell monolayer membrane transport assay (Papp and recovery); type: in vitro ADME; settings: human, Caco-2, Caco-2, A-B
Source text: Caco-2 Cell Monolayer Membrane Transport Assay
Human-derived colorectal adenocarcinoma cell line Caco-2 cell monolayer model was used to study the bidirectional transport of the target compounds from the apical (AP) side to the basolateral (BL) side and from BL side to AP side. HPLC was used for quantitative analysis to calculate transport parameters, apparent permeability coefficient (Papp) and the efflux ratio.

[3] = tested on: MDA-MB-436 breast cancer cells; assay: MTT proliferation inhibition, MDA-MB-436; type: cell-based; settings: Homo sapiens, MDA-MB-436, read-out: Proliferation inhibition rate, MDA-MB-436 Breast cancer
Source text: as §1, §2

[4] = tested on: NCI-H460 non-small cell lung cancer; assay: MTT proliferation inhibition, NCI-H460; type: cell-based; settings: Homo sapiens, NCI-H460, read-out: Proliferation inhibition rate, NCI-H460 Non-small cell lung cancer
Source text: as §1, §2

HL-60 leukemia = assay: MTT proliferation inhibition, HL-60; type: cell-based; settings: Homo sapiens, HL-60, read-out: Proliferation inhibition rate, HL60 Leukemia
Source text: as §1, §2

B16 melanoma = assay: MTT proliferation inhibition, B16; type: cell-based; settings: B16, read-out: Proliferation inhibition rate, B16 Melanoma
Source text: as §1, §2

HCT 116 colon cancer = assay: MTT proliferation inhibition, HCT 116; type: cell-based; settings: Homo sapiens, HCT-116, read-out: Proliferation inhibition rate, HCT 116 Colon cancer
Source text: as §1, §2

LNCaP prostate cancer = assay: MTT proliferation inhibition, LNCaP; type: cell-based; settings: Homo sapiens, read-out: Proliferation inhibition rate, LNCaP Prostate cancer
Source text: as §1, §2

LN-18 = assay: MTT proliferation inhibition, LN-18; type: cell-based; settings: Homo sapiens, LN-18, read-out: Proliferation inhibition rate, LN-18 Gastric canser
Source text: as §1, §2

A2780 ovarian cancer = assay: MTT proliferation inhibition, A2780; type: cell-based; settings: Homo sapiens, A2780, read-out: Proliferation inhibition rate, A2780 Ovarian cancer
Source text: as §1, §2

BGC-823 gastric cancer = assay: MTT proliferation inhibition, BGC-823; type: cell-based; settings: Homo sapiens, BGC-823, read-out: Proliferation inhibition rate, BGC-823 Gastric cancer
Source text: as §1, §2

[5] = tested on: breast cancer cell line MCF-7; assay: IC50 on breast cancer cell line MCF-7; type: cell-based; settings: Homo sapiens, MCF7, 72 h, read-out: MCF-7 (IC50, nM)
Experimental: From the activity evaluation data of the above-mentioned preliminary screen, it can be seen that the series of taxanes derivatives synthesized in the present invention have activity. Afterward, the compounds are investigated to examine their IC50 values on breast cancer cell line MCF-7. […] Experiments for each compound were independently repeated for three times and multiple holes were used in each experiment. The exposure time of drugs was 72 hours.

Du145 prostate cancer = assay: MTT proliferation inhibition, Du145; type: cell-based; settings: Homo sapiens, DU-145, read-out: Proliferation inhibition rate, DU145 Prostate cancer
Source text: as §1, §2

[6] = tested on: A549 non-small cell lung cancer; assay: MTT proliferation inhibition, A549; type: cell-based; settings: Homo sapiens, A549, read-out: Proliferation inhibition rate, A549 Non-small cell lung cancer
Source text: as §1, §2

K562 leukemia = assay: MTT proliferation inhibition, K562; type: cell-based; settings: Homo sapiens, K562, read-out: Proliferation inhibition rate, K562 Leukemia
Source text: as §1, §2

HT-29 colon cancer = assay: MTT proliferation inhibition, HT-29; type: cell-based; settings: Homo sapiens, HT-29, read-out: Proliferation inhibition rate, HT29 Colon cancer
Source text: as §1, §2

[7] = Mean, read-out: Recovery rate in mass, Mean
[8] = Sample-01, read-out: Papp A-B, Sample-01
[9] = Sample-01, read-out: Recovery rate in mass, Sample-01
[10] = Sample-02, read-out: Papp A-B, Sample-02
[11] = Sample-02, read-out: Recovery rate in mass, Sample-02

| SMILES | inhibition at 1 µM [1] [%] | inhibition at 1 µM (Hela cervical cancer) [%] | inhibition at 1 µM (A375 melanoma) [%] | recovery [2, 7] [%] | Papp A→B [2, 8] [×10⁻⁶ cm/s] | recovery [2, 9] [%] | Papp A→B [2, 10] [×10⁻⁶ cm/s] | recovery [2, 11] [%] | inhibition at 1 µM [3] [%] | inhibition at 1 µM [4] [%] | inhibition at 1 µM (HL-60 leukemia) [%] | inhibition at 1 µM (B16 melanoma) [%] | inhibition at 1 µM (HCT 116 colon cancer) [%] | inhibition at 1 µM (LNCaP prostate cancer) [%] | inhibition at 1 µM (LN-18) [%] | inhibition at 1 µM (A2780 ovarian cancer) [%] | inhibition at 1 µM (BGC-823 gastric cancer) [%] | IC50 [5] [nM] | inhibition at 1 µM (Du145 prostate cancer) [%] | inhibition at 1 µM [6] [%] | also measured |
| --- | --- | --- | --- | --- | --- | --- | --- | --- | --- | --- | --- | --- | --- | --- | --- | --- | --- | --- | --- | --- | --- |
| CO[C@H]1C(=O)[C@]2(C)[C@@H](OC(=O)N(C)C)C[C@H]3OC[C@@]3(OC(C)=O)[C@H]2[C@H](OC(=O)c2ccccc2)[C@]23OC(=O)O[C@H]2[C@H](OC(=O)[C@H](O)[C@@H](NC(=O)OC(C)(C)C)c2ccccn2)C(C)=C1C3(C)C [PCMI-15] | 95.5 | 101 | 97.9 | 79.3 | 2.14 | 83.7 | 2.78 | 74.8 | 82 | 86 | 97.8 | 80.8 | 68.3 | 86.7 | 95.7 | 95.7 | 95 | 18.2 ± 0.24 | 90.8 | 74.6 | inhibition at 1 µM (K562 leukemia): 93.2%; inhibition at 1 µM (HT-29 colon cancer): 88.7% |
| CO[C@H]1C(=O)[C@]2(C)[C@@H](OC(=O)N(C)C)C[C@H]3OC[C@@]3(OC(C)=O)[C@H]2[C@H](OC(=O)c2ccccc2)[C@]23OC(=O)O[C@H]2[C@H](OC(=O)[C@H](O)[C@H](CC(C)C)NC(=O)OC(C)(C)C)C(C)=C1C3(C)C [PCMI-16] | 97.2 | 102 | 96.3 | 33.1 | 1.41 | 32.7 | 1.87 | 33.5 | 81.2 | 87.2 | 97.8 | 83.1 | 67.1 | 86.8 | 95.2 | 96.1 | 95.3 | 21.17 ± 0.21 | 91.4 | 74.7 | Papp A→B ([2]; Mean, read-out: Papp A-B, Mean): 1.64 ×10⁻⁶ cm/s; inhibition at 1 µM (K562 leukemia): 95%; inhibition at 1 µM (HT-29 colon cancer): 89.2% |
| COC(=O)O[C@H]1C[C@H]2OC[C@@]2(OC(C)=O)[C@H]2[C@H](OC(=O)c3ccccc3)[C@]34OC(=O)O[C@H]3[C@H](OC(=O)[C@H](O)[C@@H](NC(=O)OC(C)(C)C)c3ccccn3)C(C)=C([C@@H](OC)C(=O)[C@]12C)C4(C)C [PCMI-18] | 96.2 | 98.8 | 95.1 | 88.3 | 2.65 | 85.6 | 2.33 | 90.9 | 82.3 | 88.6 | 97.8 | 81.2 | 68.3 | 84.6 | 94.7 | 95.7 | 94.3 | 4.12 ± 0.16 | 89.7 | 78.7 | Papp A→B ([2]; Mean, read-out: Papp A-B, Mean): 2.49 ×10⁻⁶ cm/s; inhibition at 1 µM (K562 leukemia): 94.5%; inhibition at 1 µM (HT-29 colon cancer): 85.2% |
| CCSC(=O)O[C@H]1C[C@H]2OC[C@@]2(OC(C)=O)[C@H]2[C@H](OC(=O)c3ccccc3)[C@]34OC(=O)O[C@H]3[C@H](OC(=O)[C@H](O)[C@@H](NC(=O)OC(C)(C)C)c3ccccc3)C(C)=C([C@@H](OC)C(=O)[C@]12C)C4(C)C [PCMI-21] | 88.7 | 99.5 | 96.7 | 72 | 2.32 | 76.6 | 2.58 | 67.5 | 83.1 | 85.5 | 96.5 | 75.8 | 70.1 | 87.4 | 94.7 | 96.4 | 93.3 | 3.46 ± 0.16 | 90.6 | 74.9 | Papp A→B ([2]; Mean, read-out: Papp A-B, Mean): 2.45 ×10⁻⁶ cm/s; inhibition at 1 µM (K562 leukemia): 95%; inhibition at 1 µM (HT-29 colon cancer): 87.7% |
